Results reported in ChEMBL document CHEMBL1201862, “PubChem BioAssay data set” (2004).
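All cell lines were grown in 96-well plates and treated with compound for 48 hours. GI50 = concentration required for 50% inhibition of growth.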 Activity calls are given as the source filed them. Rule as the data show it: active = GI50 up to about 1.1 µM and inactive = higher.

How the values were obtained:
Experiment in all cases: NCI-60 cell line screen, 48 h
UACC-62 = tested on: UACC-62
RPMI-8226 = tested on: RPMI-8226
UACC-257 = tested on: UACC-257
HOP-92 = tested on: HOP-92
786-0 = tested on: 786-0
A498 = tested on: A498
NCI-H23 = tested on: NCI-H23
SK-MEL-28 = tested on: SK-MEL-28
SNB-75 = tested on: SNB-75
K562 = tested on: K562
NCI-H226 = tested on: NCI-H226
NCI-H522 = tested on: NCI-H522
U-251 = tested on: U-251
Malme-3M = tested on: Malme-3M
SNB-19 = tested on: SNB-19
A549 = tested on: A549
HL-60 = tested on: HL-60

Measured: GI50

N#CCc1nc2c(s1)C(=O)c1ccccc1C2=O
inactive: UACC-62 13.1 µM | RPMI-8226 5.37 µM | UACC-257 15.2 µM | HOP-92 18.5 µM | 786-0 16.4 µM | A498 32.7 µM | NCI-H23 17.5 µM | SK-MEL-28 18.2 µM | SNB-75 23.1 µM | K562 11.8 µM | NCI-H226 19.8 µM | NCI-H522 14.7 µM | U-251 17.3 µM | Malme-3M 19.9 µM | SNB-19 21.4 µM

COc1ccc(/C=N/N=C(\N)NO)c(OC)c1
inactive: UACC-62 27.9 µM | RPMI-8226 84.3 µM | UACC-257 80.7 µM | HOP-92 11.2 µM | 786-0 57.5 µM | NCI-H23 46.7 µM | SK-MEL-28 > 100 µM | K562 15.7 µM | NCI-H226 34.1 µM | NCI-H522 > 10 µM | U-251 > 100 µM | Malme-3M 68.7 µM | SNB-19 > 100 µM | A549 31.8 µM

CCN(CC)CC(C(=O)Nc1c(C)cccc1C)/C(C)=N\NC(=S)NN (centres undefined)
inactive: UACC-62 > 100 µM | RPMI-8226 > 100 µM | UACC-257 > 100 µM | HL-60 > 100 µM | HOP-92 > 100 µM | 786-0 > 100 µM | A498 > 100 µM | NCI-H23 > 100 µM | SK-MEL-28 > 100 µM | SNB-75 > 100 µM | K562 > 100 µM | NCI-H226 > 100 µM | NCI-H522 > 100 µM | U-251 > 100 µM | Malme-3M > 100 µM | A549 > 100 µM

COc1cc(O)c2c(c1)O[C@@H]1OCC[C@H]21
inactive: UACC-62 > 100 µM | RPMI-8226 > 100 µM | UACC-257 > 100 µM | HL-60 > 100 µM | HOP-92 > 100 µM | 786-0 > 100 µM | A498 > 100 µM | NCI-H23 > 100 µM | SK-MEL-28 > 100 µM | SNB-75 > 100 µM | K562 > 100 µM | NCI-H226 > 100 µM | U-251 > 100 µM | Malme-3M > 100 µM | SNB-19 > 100 µM | A549 > 100 µM

Clc1cc2nc[nH]c2cc1Cl
inactive: UACC-62 76 µM | RPMI-8226 > 100 µM | HL-60 > 100 µM | HOP-92 56 µM | 786-0 > 100 µM | A498 15.7 µM | NCI-H23 > 100 µM | SK-MEL-28 > 100 µM | SNB-75 18.3 µM | K562 > 100 µM | NCI-H226 36.7 µM | U-251 > 100 µM | Malme-3M > 100 µM | SNB-19 > 100 µM | A549 > 100 µM

CC1=CP(=O)(c2ccccc2)C=C(C)C1=C(Cl)Cl (centres undefined)
inactive: UACC-62 6.43 µM | RPMI-8226 2.5 µM | HL-60 2.12 µM | 786-0 4.1 µM | NCI-H23 17.4 µM | SK-MEL-28 11.2 µM | SNB-75 4.83 µM | K562 3.21 µM | NCI-H226 3.19 µM | NCI-H522 2.6 µM | U-251 6.71 µM | SNB-19 17.7 µM | A549 6.24 µM

O=C1CCNC/C1=C\c1ccccc1
inactive: UACC-62 17.1 µM | RPMI-8226 24 µM | UACC-257 25.8 µM | HL-60 16.3 µM | 786-0 15.6 µM | A498 > 100 µM | NCI-H23 18.2 µM | SK-MEL-28 17.4 µM | SNB-75 37.8 µM | K562 23.1 µM | NCI-H226 24 µM | NCI-H522 11.3 µM | U-251 20.5 µM | SNB-19 19.4 µM | A549 22.2 µM

CC1(C)COC(C2(C)C(=O)C=C(c3ccccc3)c3ccccc32)=N1 (centres undefined)
inactive: UACC-62 54.3 µM | RPMI-8226 34.9 µM | UACC-257 31.4 µM | HL-60 27 µM | HOP-92 21.8 µM | 786-0 59.8 µM | NCI-H23 47.1 µM | SK-MEL-28 42.9 µM | SNB-75 33.4 µM | K562 33.3 µM | NCI-H226 52.1 µM | NCI-H522 35.5 µM | U-251 59.4 µM | Malme-3M 11.5 µM | SNB-19 50.5 µM | A549 33.3 µM

NC(CCSCC(F)F)C(=O)O (centres undefined)
inactive: UACC-62 > 100 µM | UACC-257 > 100 µM | HL-60 > 100 µM | HOP-92 > 100 µM | 786-0 > 100 µM | A498 > 100 µM | NCI-H23 > 100 µM | SK-MEL-28 > 100 µM | SNB-75 > 100 µM | K562 > 100 µM | NCI-H226 > 100 µM | NCI-H522 > 100 µM | U-251 > 100 µM | Malme-3M > 100 µM | SNB-19 > 100 µM | A549 > 100 µM

COC(=O)C1(O)c2ccccc2N=C2C1CCN2C (centres undefined)
inactive: UACC-62 > 100 µM | RPMI-8226 > 100 µM | UACC-257 > 100 µM | HL-60 > 100 µM | HOP-92 > 100 µM | 786-0 > 100 µM | A498 > 100 µM | NCI-H23 > 100 µM | SK-MEL-28 > 100 µM | SNB-75 26.8 µM | K562 > 100 µM | NCI-H522 > 100 µM | U-251 > 100 µM | Malme-3M > 100 µM | SNB-19 > 100 µM | A549 > 100 µM

COc1cc2c(cc1OC)-c1c(cc(OC)c(OC)c1OC)C2=O
inactive: UACC-62 > 100 µM | RPMI-8226 > 100 µM | UACC-257 > 100 µM | HL-60 98.6 µM | HOP-92 > 100 µM | 786-0 > 100 µM | NCI-H23 > 100 µM | SK-MEL-28 > 100 µM | SNB-75 18.2 µM | K562 > 100 µM | NCI-H226 > 100 µM | NCI-H522 49 µM | U-251 > 100 µM | Malme-3M > 100 µM | SNB-19 > 100 µM | A549 > 100 µM

CCOC(=O)NC(=O)c1cn(C2CCCCC2)c(=O)[nH]c1=O
inactive: UACC-62 40 µM | RPMI-8226 63.5 µM | UACC-257 > 100 µM | HL-60 7.53 µM | HOP-92 > 100 µM | 786-0 24.7 µM | A498 85.3 µM | NCI-H23 > 100 µM | SK-MEL-28 > 100 µM | K562 4.9 µM | NCI-H226 > 100 µM | NCI-H522 > 100 µM | U-251 56.8 µM | Malme-3M > 100 µM | SNB-19 > 100 µM | A549 58.7 µM

CC1CCCc2c1c1ccc3c(O)cccc3c1oc2=O (centres undefined)
inactive: UACC-62 35.1 µM | RPMI-8226 55.1 µM | UACC-257 > 100 µM | HL-60 > 100 µM | 786-0 19.5 µM | NCI-H23 29.9 µM | SK-MEL-28 > 100 µM | SNB-75 8.15 µM | K562 > 100 µM | NCI-H226 > 100 µM | NCI-H522 13.7 µM | U-251 33.8 µM | Malme-3M > 100 µM | SNB-19 34.7 µM | A549 56.9 µM
